Measured values as given in publication PMC12903969, “Discovery of a Novel and Potent Kir4.1 Inhibitor as a Safe and Rapid‐Onset Antidepressant Agent in Mice” (Advanced Science, 2025).
“And” between values parts separate entries of the source, which are not always exact repeats. Equal entries are not always repeated.

Assays:
5-HT2B receptor = target: T1, 5-HT2B receptor (Homo sapiens, UniProt P41595); test: 5-HT2B functional assay (Fluo-4 calcium, FDSS); type: cell-based
T1 construct: expressed in transfected cells
Description: Cells with inducible expression of target receptor were cultured in 175‐cm^2 flasks until ≈80% confluence, washed once with phosphate‐buffered saline (PBS), and dissociated using 0.25% trypsin–EDTA. After neutralization with culture medium and centrifugation (800 rpm, 3 min), the cells were resuspended, counted, and seeded onto poly‐D‐lysine‐coated 96‐well black plates at a density of 4 × 10^4 cells/well. Expression of the target receptor was induced with 1 µg mL^−1 doxycycline. After 30 min at room temperature, the plates were incubated at 37 °C, 5% CO2 for 18−24 h until reaching ≈90% confluence. The medium was replaced with Ca^2⁺‐free extracellular buffer, washed once, and incubated with Fluo‐4 AM for 60 min at 37 °C in the dark. After washing twice with extracellular buffer, extracellular buffer was added (80 µL/well), and the cells were incubated for an additional 20 min at room temperature before fluorescence recording. Real‐time fluorescence changes were recorded using an FDSS/µCell system at 480 nm excitation and 540 nm emission with a sampling rate of 1 Hz. After a 10‐s baseline, the test compounds were added (20 µL/well), and fluorescence was recorded for 180 s. Subsequently, […] was added (20 µL/well), and the signals were monitored for a total of 360 s.
The agonistic effect (%) of compounds was calculated as follows: (1) Agonist%=Rcompound−Rcontrol/Rcontrol×100% where R control is the maximal fluorescence ratio after the addition of 0.5% DMSO and R compoundis the ratio obtained after compound treatment. Fluorescence response curves and EC50 values were used to evaluate the agonistic potency. The extracellular (Ca^2+‐free) buffer contained (in mM): 140 NaCl, 5 KCl, 1 MgCl2, 10 glucose, 10 HEPES, 2 probenecid; pH adjusted to 7.4 with NaOH.

mice [1] = test: Acute forced swim test (FST); type: in vivo; conditions: 30 and 60 mg kg−1
Description: Mice were placed individually in a transparent glass cylinder (25 cm high, 10 cm wide) filled with water (temperature 23–25 °C) to a depth of 10 cm, and prevented from making contact with the bottom. Mice behaviors were videotaped from each side. The observation period lasted for 6 min, with the final 4 min used to measure immobile behavior, which was processed using the AnyMaze Tracking System (Stoelting).

C57BL/6J mice [2] = test: Seizure threshold measurement in maximal electroshock (MES); type: in vivo; parameters: seizure incidence, Single dose-MES / seizure incidence, Multiple dose-MES: unit not given here; conditions: for seizure incidence, Multiple dose-MES / seizure incidence, Single dose-MES: JX3212 10 mpk
Description: Male C57BL/6J mice underwent corneal electroshock stimulation using an Orchid Scientifics EC‐02 stimulator with a fixed pulse duration of 0.2 s. The current intensity was titrated in a stepwise manner (0.1 mA increments) based on real‐time behavioral responses during serial testing. Seizure severity was quantified using the hindlimb tonic extension score, with rigorous blinding applied to the vehicle‐ and JX3212‐treated groups. Subsequently, CS50 values were determined.

C57BL/6J mice [3] = test: Open field test (OFT) after chronic administration; type: in vivo; conditions: chronic 10 mg kg−1 per day
Description: This test was used to assess anxiety‐related behaviors in the mice. C57BL/6J mice were individually habituated to a 40 × 40 × 40 cm^3 open field arena under dim light for […]. Locomotor activity during the final 5 min was digitally recorded (30 fps) and analyzed using Tracking Master (Future Life Science (Shanghai) Co., Ltd., Shanghai, China). The primary endpoints included the total ambulatory distance (cm) and center‐zone exploration frequency (20 × 20 cm^2 central area).

mice [4] = test: Novel object recognition test (NOR); type: in vivo; conditions: chronic 10 mg kg−1 per day
Description: This test was designed to assess memory in rodents. The mice were individually exposed to familiar and novel objects. The test consists of three phases: habituation, training, and retention. During habituation, each animal freely traversed an empty cubic arena (≈40 cm per side) for 5 min, then was returned to its home cage. In the subsequent training phase, two identical rectangular objects were fixed 10 cm from opposite walls, and the mouse, introduced with its snout directed toward the center of the distal wall, was allowed to investigate the objects for 5 min. One hour later, in the retention phase, one of the familiar objects was exchanged for a geometrically distinct but comparably sized novel object, and exploration was recorded for 5 min. The positions of familiar and novel objects were systematically randomized across trials to prevent spatial bias. Object exploration was quantified as the duration of direct nose/mouth orientation toward objects within ≤ 2 cm, excluding instances of turning away or sitting on objects. Recognition memory was assessed using the discrimination ratio, calculated as N/(N + F) × 100%, where N represents the exploration time of the novel object and F denotes the exploration time of the familiar object.

mice [5] = test: Rotarod test (RT); type: in vivo; conditions: chronic 10 mg kg−1 per day
Description: The rotarod test was designed to evaluate the coordination and motor performance of rodents. The speed and time were set for the rod rotators. All experimental mice were allowed to adapt to a lower speed (5 rpm). For the formal test, the mice were placed on a rod spinning at 20 rpm, and the duration that the mice were able to hold on the rod at this speed was recorded. The maximum test duration was 20 min.

mice [6] = test: Repeat-dose (14-day subacute) toxicity study
Description: The mice received daily treatments for 14 consecutive days and were monitored once daily for signs of toxicity. Individual body weights were measured daily throughout the observation period. At the end of this period, all mice were sacrificed and dissected. Macroscopic evaluation was performed, and the heart, liver, spleen, lungs, kidneys, and brain were excised for relative weight calculations. Representative organ fragments were embedded in formalin and paraffin, then fixed for subsequent histopathological analysis. Serum biochemical analyses included determination of creatinine, urea, alanine aminotransferase, and aspartate aminotransferase.

[7] = 100 mg/kg, 14-day, individual animals
[8] = organ weight index, 100 mpk, 14-day, individual animals, 100 mg/kg

T1 sequence (P41595 whole entry): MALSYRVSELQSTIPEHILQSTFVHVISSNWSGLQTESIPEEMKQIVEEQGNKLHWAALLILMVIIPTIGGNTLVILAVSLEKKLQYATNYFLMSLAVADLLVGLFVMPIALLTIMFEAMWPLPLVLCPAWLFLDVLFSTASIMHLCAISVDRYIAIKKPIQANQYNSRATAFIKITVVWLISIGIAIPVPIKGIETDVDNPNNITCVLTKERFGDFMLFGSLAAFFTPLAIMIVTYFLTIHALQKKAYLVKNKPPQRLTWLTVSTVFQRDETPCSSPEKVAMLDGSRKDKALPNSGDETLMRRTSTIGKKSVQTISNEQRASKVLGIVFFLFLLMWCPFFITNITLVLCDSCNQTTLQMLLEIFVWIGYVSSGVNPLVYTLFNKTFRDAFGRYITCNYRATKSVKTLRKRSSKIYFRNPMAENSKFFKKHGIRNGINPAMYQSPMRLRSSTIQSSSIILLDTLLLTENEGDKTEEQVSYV

## c1ccc2c(c1)oc1ccc(Nc3ccnc(NCCCN4CCOCC4)n3)cc12 [JX3212, N^4-(dibenzo[b,d]furan-2-yl)-N^2-(3-morpholinopropyl)pyrimidine-2,4-diamine]
5-HT2B receptor; agonistic effect
  EC50: > 60 µM
5-HT2B receptor; read-out: 5-HT2B agonistic effect, replicates, concentration 60 (presumably µM)
  activation at 60 µM: 55.2%
5-HT2B receptor; read-out: 5-HT2B max activation%
  Emax: 62.4%
Mice [1]
  immobility time in acute FST (in words): significantly reducing immobility time
C57BL/6J mice [2]; 10 mg kg−1, single or 14-day consecutive administration
  seizure susceptibility, maximal electronic seizure model (in words): did not alter seizure susceptibility
C57BL/6J mice [2]; stimulus 0.45 mA
  seizure incidence, Multiple dose-MES: 0
  seizure incidence, Single dose-MES: 0
C57BL/6J mice [2]; stimulus 0.55 mA
  seizure incidence, Multiple dose-MES: 12.5
  seizure incidence, Single dose-MES: 37.5
C57BL/6J mice [2]; stimulus 0.65 mA
  seizure incidence, Multiple dose-MES: 50
  seizure incidence, Single dose-MES: 50
C57BL/6J mice [2]; stimulus 0.75 mA
  seizure incidence, Multiple dose-MES: 87.5
  seizure incidence, Single dose-MES: 75
C57BL/6J mice [3]
  OFT total and central distance traveled (in words): no pronounced differences
Mice [4]
  NOR discrimination ratio vs vehicle (in words): showed no effects
Mice [5]
  rotarod falling latency vs vehicle (in words): showed no significant effects
Mice [6]; 100 mg kg−1 i.p., 14 days
  histomorphology of liver, spleen, kidneys, HE staining (in words): no pronounced pathological changes
  serum creatine level (in words): slight decrease in creatine levels
Mice [6]; 100 mg kg−1 i.p., 14 days, n = 6
  mortality, body weight, organ-to-body weight ratio (in words): No mortality or significant changes in body weight
Mice [6]; [7]
  ALT: 24 and 28 and 22 and 33 and 30 and 36
  AST: 77 and 98 and 90 and 81
  Cr: 23 and 24 and 31 and 22
Mice [6]; 100 mpk, day 1, individual animals
  Body weight: 24.7 and 25 (2×) and 25.5
Mice [6]; 100 mpk, day 2, individual animals
  Body weight: 24.3 and 25 and 24.7 and 23.4 (2×) and 24.2
Mice [6]; 100 mpk, day 3, individual animals
  Body weight: 25 (2×) and 23.6 and 23.7 and 24.2 and 23.8
Mice [6]; 100 mpk, day 4, individual animals
  Body weight: 23.4 and 25 and 24.7 and 25.4 and 24 (2×)
Mice [6]; 100 mpk, day 5, individual animals
  Body weight: 25 and 23.3 and 24.7 (2×) and 25.4
Mice [6]; 100 mpk, day 6, individual animals, in g (unit assumed)
  Body weight: 24.7 and 23.4 and 25 and 25.8 and 24.4
Mice [6]; 100 mpk, day 7, individual animals, in g (unit assumed)
  Body weight: 25.1 and 23.1 and 25.2 and 25.3 and 23.9 and 24.5
Mice [6]; 100 mpk, day 8, individual animals
  Body weight: 24.6 (2×) and 23.2 and 24 and 24.9 and 22.8
Mice [6]; 100 mpk, day 9, individual animals
  Body weight: 23.2 and 23 and 24.8 (2×) and 23.5 and 25
Mice [6]; 100 mpk, day 10, individual animals, in g (unit assumed)
  Body weight: 23.6 and 22.9 and 24.4 and 24.1
Mice [6]; 100 mpk, day 11, individual animals, in g (unit assumed)
  Body weight: 24.4 and 23.3 and 23.8
Mice [6]; 100 mpk, day 12, individual animals, in g (unit assumed)
  Body weight: 24.4 and 23.7 and 24.2 and 23.3
Mice [6]; 100 mpk, day 13, individual animals
  Body weight: 24.3 and 24.1 (2×) and 23.6 and 25.7 and 23.4
Mice [6]; 100 mpk, day 14, individual animals, in g (unit assumed)
  Body weight: 24.1 and 23.8 and 26.2 and 24.4 and 22.9 and 24
Mice [6]; [8]
  Brain: 1.903 and 1.921 and 1.682 and 2.001 and 1.79 and 1.878
  Heart: 0.4606 and 0.4848 and 0.4887 and 0.4129 and 0.4371 and 0.4527
  Kidney: 1.532 and 1.538 and 1.4509 and 1.426 and 1.403 and 1.554
  Liver: 6.39 and 5.873 and 5.169 and 5.3375 and 6.082 and 6.251
  Lung: 0.6629 and 0.6646 and 0.5455 and 0.5464 and 0.7241 and 0.5883
  Spleen: 0.4787 and 0.4556 and 0.409 and 0.4522 and 0.473 and 0.3725
